# Assay results as given in patent publication US6160017A, “Preventives and remedies for ulcerous colitis and/or crohn's disease” (Zaidan Hojin Biseibutsu Kagaku Kenkyu Kai, priority 1997, dated 2000).
# Legend:
# [1] = test system: acetic acid-induced rat ulcer models; assay: Effect on acetic acid-induced rat ulcer model; type: in vivo, rat (male Donryu:CRJ); conditions: 50 mg/kg i.v.
# Description: Morbid models were prepared by starving male Donryu:CRJ rats (aged 6 weeks; 9 rats per group) for 24 hours, incising each of their abdomens under etherization to ligate its colon, injecting a 10% aqueous solution (2 ml) of acetic acid into the digestive tract lumen thereof by means of a syringe equipped with a 25 G needle, further injecting air (3 ml) to discharge the acetic acid solution, and then suturing and closing the operated part. Conagenin was intravenously administered to the rats in a dose of 50 mg/kg 24 hours before the preparation of the models and right after the operation. After 24 hours, the rat models were slaughtered to take out their colons and recta. These organs were incised by 10 cm above from the anus to remove their contents. Thereafter, the weight of the organs was measured, and moreover the degree of mucosal disorder was visually observed. The degree of the tissue damage was evaluated using the grades "light", "medium" and "serious".
# [2] = test system: trinitrobenzenesulfonic acid (TNBS)-induced rat colitis models; assay: Effect on trinitrobenzenesulfonic acid (TNBS)-induced rat colitis model; type: in vivo, rat (male Wister); conditions: for Wet weight of large intestine: conagenin 50 mg/kg i.v., salazosulfapyridine 300 mg/kg p.o., daily, untreated 1.571 ± 0.161, saline 1.723 ± 0.167; for Stage of lesion: number of rats that reached a subacute stage: saline group 4 rats; for Depth of invasion of the ulcer (lamina propria mucosae and submucosal tissue): saline group medium; for Percent change in wet weight against untreated group: untreated 100, TNBS and saline 110
# Description: Morbid models were prepared by starving male Wister rats (aged 6 weeks; 7 rats per group) for 48 hours, inserting a catheter by 8 cm through the anus of each of the rats under anesthesia with pentobarbital to inject a solution (0.25 ml) with 2,4,6-trinitrobenzenesulfonic acid dissolved in 50% ethanol in a proportion of 80 mg/ml, stopping the anus for about 10 minutes and then allowing it to stand.
# Conagenin was intravenously administered to the rats in a dose of 50 mg/kg. Salazosulfapyridine was orally administered as a control agent in a dose of 300 mg/kg. The administration of these test agents was carried out every day from the day before the administration of 2,4,6-trinitrobenzenesulfonic acid to the fourth day after the administration. The rat models were slaughtered at the fifth day after the administration to determine a change in the wet weight of their recta (8 cm) and make a judgment on the basis of the pathological findings thereof.
# [3] = Single administration (acute) toxicity test on rats; type: in vivo; conditions: in vivo, rat
# Description: (§1) Conagenin (500 mg/kg) was singly administered intravenously, intraperitoneally, subcutaneously or orally to mice and rats to investigate its toxicity.
# Rat = assay: as above; type: in vivo
# Description: as §1
# [4] = Single administration toxicity test on mice; type: in vivo, mouse; conditions: in vivo; mouse, intravenous
# Description: as §1
# Mouse = assay: Single administration toxicity test on mice; type: in vivo
# Description: as §1
# rats = assay: 3-month repeated administration toxicity test on rats; type: in vivo, rat (male Wister); conditions: 3 months
# Description: Conagenin (100 mg/kg) was intraperitoneally administered repeatedly for 3 months to male Wister rats (aged 6 weeks; 3 rats per group) to evaluate its toxicity using a group dosed with physiological saline as a control. Tests were made for general symptoms, urinalysis, blood test, blood biochemical test, autopsy, organ weight and pathological test.
# The judgment of the test items was conducted in accordance with "Guideline of Toxicity Testing Methods".
# patients = conditions: double blind test; cited from earlier work
# [5] = 24 h before and right after operation, 9 rats per group
# [6] = pathological findings of colon, 7 rats per group
# [7] = 100 mg/kg i.p., compared with saline control
smiles,measurement,setting,value
"C[C@@H]([C@@H](C)O)[C@@H](O)C(=O)N[C@@](C)(CO)C(=O)O [Conagenin, (2S)N-[(2R,3S,4R)2,4-dihydroxy-3-methyl-pentanoyl]-2-methylserine]","Number of animals, grade of inflammation Light (1)",[1]; [5],5
same,"Number of animals, grade of inflammation Medium (2)",[1]; [5],3
same,"Number of animals, grade of inflammation Serious (3)",[1]; [5],1
same,"Grade of inflammation, mean ± SD",[1]; control (physiological saline) 2.38 ± 0.67,1.50 ± 0.73
same,Suppressing effect on the inflammatory ulcer compared with the control group,[1]; in words,high suppressing effect
same,Inflammatory change (in words),[2],exactly the same good result
same,Therapeutic effect compared with salazosulfapyridine,[2]; conagenin 50 mg/kg i.v. vs salazosulfapyridine 300 mg/kg p.o.,marked therapeutic effect
same,Wet weight of large intestine,[2],1.572 ± 0.099 g
same,Increase in wet weight of the large intestine (in words),[2]; control (saline) 10%,No increase was observed
same,"Depth of invasion on lamina propria mucosae: number of animals, light",[2]; [6],2
same,"Depth of invasion on lamina propria mucosae: number of animals, no marked change",[2]; [6],5
same,"Depth of invasion on submucosal tissue: number of animals, no marked change",[2]; [6],7
same,"Depth of invasion on tunica muscularis: number of animals, no marked change",[2]; [6],7
same,"Findings of ulceration: number of animals, light",[2]; [6],2
same,"Findings of ulceration: number of animals, no marked change",[2]; [6],5
same,"Inflammatory change: number of animals, light",[2]; [6],1
same,"Inflammatory change: number of animals, no marked change",[2]; [6],6
same,Stage of lesion: number of rats that reached a subacute stage,[2],2 rats
same,Depth of invasion of the ulcer (lamina propria mucosae and submucosal tissue),[2],light
same,Percent change in wet weight against untreated group,[2],100%
same,LD50,"[3]; ip, intraperitoneal",> 500 mg/kg
same,LD50,"[3]; sc, subcutaneous",> 500 mg/kg
same,LD50,[3]; intravenous,> 500 mg/kg
same,LD50,[3]; oral,> 500 mg/kg
same,LD50,"[3]; acute toxicity, rats, oral, subcutaneous, intraperitoneal and intravenous",≥ 500 mg/kg
same,Abnormal finding of general symptoms,"Rat; rat, in vivo, 500 mg/kg",no abnormal finding of general symptoms
same,Death,"Rat; rats, single 500 mg/kg",No death was observed
same,LD50,[4],> 500 mg/kg
same,Death,"Mouse; mice, single 500 mg/kg",No death was observed
same,Abnormal finding of general symptoms,"Mouse; mouse, in vivo, 500 mg/kg",no abnormal finding of general symptoms
same,Death,rats; 100 mg/kg i.p.,None
same,"All items tested (general symptoms, urinalysis, blood test, blood biochemical test, autopsy, organ weight, pathological test)",rats; [7],no significant change was observed
same,Blood biochemical test,rats; [7],No marked change
same,General symptoms,rats; [7],No marked change
same,Hematological test,rats; [7],No marked change
same,Pathological test,rats; [7],No marked change
same,Urinalysis,rats; [7],No marked change
same,Development of toxicity,"rats; efficacious dose of 100 mg/kg, rats",no development of toxicity was observed
Nc1ccc(O)c(C(=O)O)c1 [mesalazine],Generalized amelioration rate,patients,68.8%
same,Incidence rate of the side effect,patients,11.5%
O=C(O)c1cc(/N=N/c2ccc(S(=O)(=O)Nc3ccccn3)cc2)ccc1O [salazosulfapyridine],Wet weight of large intestine,[2],1.641 ± 0.140 g
same,Increase in wet weight of the large intestine,[2]; control (saline) 10%,4%
same,"Depth of invasion on lamina propria mucosae: number of animals, light",[2]; [6],2
same,"Depth of invasion on lamina propria mucosae: number of animals, medium",[2]; [6],2
same,"Depth of invasion on lamina propria mucosae: number of animals, no marked change",[2]; [6],3
same,"Depth of invasion on submucosal tissue: number of animals, light",[2]; [6],2
same,"Depth of invasion on submucosal tissue: number of animals, no marked change",[2]; [6],5
same,"Depth of invasion on tunica muscularis: number of animals, no marked change",[2]; [6],7
same,"Findings of ulceration: number of animals, light",[2]; [6],2
same,"Findings of ulceration: number of animals, medium",[2]; [6],2
same,"Findings of ulceration: number of animals, no marked change",[2]; [6],3
same,"Inflammatory change: number of animals, light",[2]; [6],2
same,"Inflammatory change: number of animals, medium",[2]; [6],1
same,"Inflammatory change: number of animals, no marked change",[2]; [6],4
same,Stage of lesion: number of rats that reached a subacute stage,[2],4 rats
same,Depth of invasion of the ulcer (lamina propria mucosae and submucosal tissue),[2],medium
same,Percent change in wet weight against untreated group,[2],104%
same,Generalized amelioration rate,patients,63.5%
same,Incidence rate of the side effect,patients,28.1%
